Source: PubChem BioAssay AID1963849 (Molecular Pharmacology Branch, DTP, NCI, 2024)

Tested on: 299254-011-R-J1-PDC complex spheroid viability
Test: Anticancer human tumor 299254-011-R-J1-PDC patient-derived melanoma cell line growth inhibition [POLQ]
Settings: for IC50: curve of first compound; for viability, T/C: stronger effect = lower value
Outline: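 Patient-derived tumour cells were co-cultured with HUVEC and mesenchymal stem cells as multicellular spheroids at 37 °C. They were treated with POLQ inhibitors (novobiocin, ART-558, RP6685) alone or combined with other agents. Top concentrations were at or near clinical Cmax (otherwise 10 microM; SN-38 at 1 microM), decreasing in half-log steps.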

[1] = second compound 0.0316 µM, first compound 0.0316 µM
[2] = second compound 0.0316 µM, first compound 0.1 µM
[3] = second compound 0.0316 µM, first compound 0.316 µM
[4] = second compound 0.0316 µM, first compound 1 µM
[5] = second compound 0.0316 µM, first compound 3.16 µM
[6] = second compound 0.0316 µM, first compound 10 µM
[7] = second compound 0.1 µM, first compound 0.0316 µM
[8] = second compound 0.1 µM, first compound 0.1 µM
[9] = second compound 0.1 µM, first compound 0.316 µM
[10] = second compound 0.1 µM, first compound 1 µM
[11] = second compound 0.1 µM, first compound 3.16 µM
[12] = second compound 0.1 µM, first compound 10 µM
[13] = second compound 0.316 µM, first compound 0.0316 µM
[14] = second compound 0.316 µM, first compound 0.1 µM
[15] = second compound 0.316 µM, first compound 0.316 µM
[16] = second compound 0.316 µM, first compound 1 µM
[17] = second compound 0.316 µM, first compound 3.16 µM
[18] = second compound 0.316 µM, first compound 10 µM
[19] = second compound 1 µM, first compound 0.0316 µM
[20] = second compound 1 µM, first compound 0.1 µM
[21] = second compound 1 µM, first compound 0.316 µM
[22] = second compound 1 µM, first compound 1 µM
[23] = second compound 1 µM, first compound 3.16 µM
[24] = second compound 1 µM, first compound 10 µM
[25] = second compound 3.16 µM, first compound 0.0316 µM
[26] = second compound 3.16 µM, first compound 0.1 µM
[27] = second compound 3.16 µM, first compound 0.316 µM
[28] = second compound 3.16 µM, first compound 1 µM
[29] = second compound 3.16 µM, first compound 3.16 µM
[30] = second compound 3.16 µM, first compound 10 µM
[31] = second compound 10 µM, first compound 0.0316 µM
[32] = second compound 10 µM, first compound 0.1 µM
[33] = second compound 10 µM, first compound 0.316 µM
[34] = second compound 10 µM, first compound 1 µM
[35] = second compound 10 µM, first compound 3.16 µM
[36] = second compound 10 µM, first compound 10 µM
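Note: spheroids exposed to drugs for one week before measurement.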
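Throughout, for viability, T/C: percent viability relative to DMSO vehicle control taken as 100%.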

`Nc1ccn(C2OC(CO)C(O)C2(F)F)c(=O)n1` (stereo unspecified) + COC1C(OC(N)=O)C(O)C(Oc2ccc3c(O)c(NC(=O)c4ccc(O)c(CC=C(C)C)c4)c(=O)oc3c2C)OC1(C)C showed an IC50 (second compound 0.0316 µM) of 0.0818 µM, an IC50 (second compound 0.1 µM) of 0.0767 µM and an IC50 (second compound 0.316 µM) of 0.0631 µM. The IC50 (second compound 1 µM) was 0.0796 µM, the IC50 (second compound 3.16 µM) was < 0.0316 µM and the IC50 (second compound 10 µM) was 0.0662 µM. For the same compound, the viability, T/C [1] was 62.8%, the viability, T/C [2] was 44.3% and the viability, T/C [3] was 41.2%. For the same compound, the viability, T/C [4] was 35.1%, the viability, T/C [5] was 46.8% and the viability, T/C [6] was 44.4%. The viability, T/C [7] was 60.1%, the viability, T/C [8] was 40.6% and the viability, T/C [9] was 52.4%. It also gave a viability, T/C [10] of 37.7%, a viability, T/C [11] of 35.6% and a viability, T/C [12] of 39.2%. For the same compound, the viability, T/C [13] was 64.7%, the viability, T/C [14] was 40.6% and the viability, T/C [15] was 36.6%. The viability, T/C [16] was 30.9%, the viability, T/C [17] was 44.7% and the viability, T/C [18] was 41.2%. For the same compound, the viability, T/C [19] was 71.6%, the viability, T/C [20] was 44.4% and the viability, T/C [21] was 46.6%. It also gave a viability, T/C [22] of 33.8%, a viability, T/C [23] of 48.9% and a viability, T/C [24] of 45.5%. The viability, T/C [25] was 57%, the viability, T/C [26] was 38.8% and the viability, T/C [27] was 35%. The viability, T/C [28] was 39.6%, the viability, T/C [29] was 31.3% and the viability, T/C [30] was 42.4%. For the same compound, the viability, T/C [31] was 61%, the viability, T/C [32] was 44.1% and the viability, T/C [33] was 39.1%. The viability, T/C [34] was 39.3%, the viability, T/C [35] was 48.9% and the viability, T/C [36] was 31.4%.

With `O=C(c1cc(Cc2n[nH]c(=O)c3ccccc23)ccc1F)N1CCN(C(=O)C2CC2)CC1` + COC1C(OC(N)=O)C(O)C(Oc2ccc3c(O)c(NC(=O)c4ccc(O)c(CC=C(C)C)c4)c(=O)oc3c2C)OC1(C)C the IC50 (second compound 0.0316 µM) was > 10 µM, the IC50 (second compound 0.1 µM) was > 10 µM and the IC50 (second compound 0.316 µM) was > 10 µM. The IC50 (second compound 1 µM) was > 10 µM, the IC50 (second compound 3.16 µM) was > 10 µM and the IC50 (second compound 10 µM) was > 10 µM. For the same compound, the viability, T/C [1] was 129%, the viability, T/C [2] was 114% and the viability, T/C [3] was 114%. For the same compound, the viability, T/C [4] was 122%, the viability, T/C [5] was 116% and the viability, T/C [6] was 101%. The viability, T/C [7] was 107%, the viability, T/C [8] was 113% and the viability, T/C [9] was 117%. For the same compound, the viability, T/C [10] was 129%, the viability, T/C [11] was 131% and the viability, T/C [12] was 93.6%. For the same compound, the viability, T/C [13] was 116%, the viability, T/C [14] was 110% and the viability, T/C [15] was 119%. The viability, T/C [16] was 135%, the viability, T/C [17] was 106% and the viability, T/C [18] was 99.5%. It also gave a viability, T/C [19] of 128%, a viability, T/C [20] of 122% and a viability, T/C [21] of 121%. The viability, T/C [22] was 127%, the viability, T/C [23] was 134% and the viability, T/C [24] was 98.2%. The viability, T/C [25] was 144%, the viability, T/C [26] was 114% and the viability, T/C [27] was 109%. The viability, T/C [28] was 121%, the viability, T/C [29] was 117% and the viability, T/C [30] was 98.9%. It also gave a viability, T/C [31] of 128%, a viability, T/C [32] of 119% and a viability, T/C [33] of 120%. The viability, T/C [34] was 128%, the viability, T/C [35] was 108% and the viability, T/C [36] was 95.2%.

In the case of `O=c1[nH]cc(F)c(=O)[nH]1` + COC1C(OC(N)=O)C(O)C(Oc2ccc3c(O)c(NC(=O)c4ccc(O)c(CC=C(C)C)c4)c(=O)oc3c2C)OC1(C)C, the IC50 (second compound 0.0316 µM) is reported as > 10 µM, the IC50 (second compound 0.1 µM) is reported as > 10 µM and the IC50 (second compound 0.316 µM) is reported as > 10 µM. The IC50 (second compound 1 µM) was > 10 µM, the IC50 (second compound 3.16 µM) was > 10 µM and the IC50 (second compound 10 µM) was > 10 µM. The viability, T/C [1] was 109%, the viability, T/C [2] was 108% and the viability, T/C [3] was 122%. For the same compound, the viability, T/C [4] was 99.6%, the viability, T/C [5] was 94.3% and the viability, T/C [6] was 66.8%. For the same compound, the viability, T/C [7] was 110%, the viability, T/C [8] was 110% and the viability, T/C [9] was 114%. The viability, T/C [10] was 113%, the viability, T/C [11] was 93.7% and the viability, T/C [12] was 76.3%. For the same compound, the viability, T/C [13] was 109%, the viability, T/C [14] was 102% and the viability, T/C [15] was 116%. For the same compound, the viability, T/C [16] was 101%, the viability, T/C [17] was 91.8% and the viability, T/C [18] was 79.1%. It also gave a viability, T/C [19] of 111%, a viability, T/C [20] of 115% and a viability, T/C [21] of 92.8%. It also gave a viability, T/C [22] of 110%, a viability, T/C [23] of 101% and a viability, T/C [24] of 87.7%. It also gave a viability, T/C [25] of 110%, a viability, T/C [26] of 117% and a viability, T/C [27] of 128%. It also gave a viability, T/C [28] of 112%, a viability, T/C [29] of 91.3% and a viability, T/C [30] of 68.8%. For the same compound, the viability, T/C [31] was 130%, the viability, T/C [32] was 131% and the viability, T/C [33] was 96.2%. The viability, T/C [34] was 109%, the viability, T/C [35] was 89.9% and the viability, T/C [36] was 78.3%.
